Results on 35 molecules are retold here after ChEMBL document CHEMBL6103553, “Small molecule inhibitors targeting PD-L1, CTLA4, VISTA, TIM-3, and LAG3 for cancer immunotherapy (2020-2024)” (Eur J Med Chem, 2025).

Molecules are shown by their SMILES.

Data set [1] can be described thus: Inhibition of his-tagged CTLA-4/CD80 (unknown origin) protein-protein interaction by TR-FRET assay. Details: species or system Homo sapiens. On the technique in general: Time-resolved FRET reads energy transfer from a long-lived donor to a nearby acceptor.
A short description of data set [2]: Inhibition of CTLA-4/CD80 (unknown origin) protein-protein interaction. Set-up: species or system Homo sapiens.
Data set [3] has as its target Programmed cell death protein 1/Programmed cell death 1 ligand 1 (Homo sapiens, UniProt Q9NZQ7). The experiment in a line: Inhibition of human PD-1/PD-L1 incubated for 1 hr by HTRF assay. The class given is protein-complex assay.
For data set [4], the target named is T1, V-type immunoglobulin domain-containing suppressor of T-cell activation (Homo sapiens, UniProt Q9H7M9).
T1 sequence (Q9H7M9 whole entry): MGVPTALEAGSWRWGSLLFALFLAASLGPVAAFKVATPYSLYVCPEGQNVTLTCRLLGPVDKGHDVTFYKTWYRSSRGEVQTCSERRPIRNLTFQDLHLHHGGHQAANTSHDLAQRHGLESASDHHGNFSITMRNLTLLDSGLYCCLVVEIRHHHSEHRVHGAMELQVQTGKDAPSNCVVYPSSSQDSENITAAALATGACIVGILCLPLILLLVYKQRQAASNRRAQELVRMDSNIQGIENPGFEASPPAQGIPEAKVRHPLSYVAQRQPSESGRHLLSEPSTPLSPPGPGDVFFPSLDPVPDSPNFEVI
As to the kind of experiment: Inhibition of N-terminal His-tagged human recombinant VISTA (1 to 161 residues) transfected in human Expi293 cells incubated for 60 mins by ELISA analysis. The class given is cell-based. For orientation: An ELISA detects its analyte on a solid surface through an enzyme-linked reagent.

The target of data set [5] is T1, V-type immunoglobulin domain-containing suppressor of T-cell activation. The experiment in a line: biochemical.
Description: Binding affinity to N-terminal His-tagged human recombinant VISTA (1 to 161 residues) transfected in human Expi293 cells assessed as dissociation constant incubated for 60 mins by SPR assay
Data set [6] in a line: Inhibition of VISTA/VSIG-3 (unknown origin) protein-protein interaction by TR-FRET assay.
Data set [7] can be described thus: Induction of PD-L1 degradation in human NCI-H460 cells transfected with siRNA ABCB1 incubated for 2 hrs by Western blot analysis. The note with it: NCI-H460, 2 h. Background: A western blot detects proteins with antibodies after separation by electrophoresis.
Data set [8] is described as follows: Inhibition of LAG-3/MHC-II (unknown origin) interaction by TR-FRET assay. Set-up: species or system Homo sapiens.
Data set [9] is described as follows: Inhibition of PD-L1 (unknown origin) by FRET assay. Set-up: species or system Homo sapiens.
Data set [10] can be described thus: Binding affinity to PD-L1 (unknown origin) assessed as dissociation constant. Details: species or system Homo sapiens.
Data set [11] in a line: Inhibition of human PD-L1 by HTRF assay.
A further data set concerns the target Tubulin. The experiment in a line: Inhibition of tubulin polymerization (unknown origin). The class given is protein-complex assay, Homo sapiens.
A short description of data set [12]: Stability in mouse plasma assessed as half life. The class given is ADME, cell-free.
Another data set has as its system MC-38. As to the kind of experiment: Antitumor activity against mouse MC-38 cells implanted in C57BL/6N mouse assessed as reduction in tumor volume at 10 mg/kg, ip in presence of PD-L1 and measured after 10 days relative to control. Set-up: scale not given: the % may be the effect or the level left. The note with it: time 10 day. Format: functional.
A short description of data set [13]: Inhibition of PD-L1 (unknown origin) by HTRF assay. Details: species or system Homo sapiens.

Programmed cell death protein 1/Programmed cell death 1 ligand 1, sequence (Q15116 whole entry, the tested form may be a part): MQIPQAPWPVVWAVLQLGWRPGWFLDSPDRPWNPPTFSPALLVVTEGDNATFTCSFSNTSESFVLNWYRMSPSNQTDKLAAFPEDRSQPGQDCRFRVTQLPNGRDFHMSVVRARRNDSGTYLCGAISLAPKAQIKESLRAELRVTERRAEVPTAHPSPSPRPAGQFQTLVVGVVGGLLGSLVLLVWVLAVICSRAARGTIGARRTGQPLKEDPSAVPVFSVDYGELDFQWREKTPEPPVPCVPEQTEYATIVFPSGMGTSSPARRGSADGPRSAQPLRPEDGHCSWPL
Programmed cell death protein 1/Programmed cell death 1 ligand 1, sequence (Q9NZQ7 whole entry, the tested form may be a part): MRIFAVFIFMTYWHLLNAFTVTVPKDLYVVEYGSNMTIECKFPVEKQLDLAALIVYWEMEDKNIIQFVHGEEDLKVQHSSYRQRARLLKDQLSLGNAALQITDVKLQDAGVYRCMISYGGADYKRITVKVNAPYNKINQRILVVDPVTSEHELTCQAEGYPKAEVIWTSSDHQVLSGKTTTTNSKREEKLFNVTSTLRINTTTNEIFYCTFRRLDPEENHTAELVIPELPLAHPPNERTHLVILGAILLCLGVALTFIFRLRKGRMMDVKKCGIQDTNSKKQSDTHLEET

The term IC50 denotes the concentration needed to halve the response being measured. `Clc1ccc(C2=NN(c3ccccc3)C(c3ccco3)C2)cc1` (centres undefined) showed a half-maximal inhibitory concentration (IC50) in data set [1] of 1 µM.

As to `COc1ccccc1C1CN(c2ccccc2)N=C1c1cccs1` (centres undefined), inhibition in data set [2] was half-maximal at 1.9 µM (IC50).

As to `Cc1nc(C)c(C(=O)NNC(=O)Cc2ccccc2)cc1C(=O)NNC(=O)Cc1ccccc1`, in data set [3], the IC50 was 0.00109 µM.

Consider `COc1ccc(-c2nc(N)nc(-c3cc(C)ccc3O)c2Cl)cc1`, for which half-maximal inhibition in data set [3] (IC50) was put at 0.00244 µM.

Turning to `CN(C)c1n/c(=N/Cc2cccs2)ss1`, in [4], the IC50 was found to be 6.4 µM.

A word on the Kd: it is the free concentration of one partner at which half of the binding sites on the other are occupied at equilibrium, for simple one-to-one binding. `CN(C)c1n/c(=N/Cc2ccco2)ss1`: the dissociation constant Kd in data set [5] was 6.2 µM. Besides, the half-inhibitory concentration (IC50) in data set [4] worked out at 4.5 µM; in data set [6], 9.7 µM.

Broadly, the DC50 is the concentration at which degradation of the target reaches its halfway point. Regarding `C[C@@]1(C(=O)O)CC[C@]2(C)CC[C@]3(C)C4=CC(=O)c5c(cc(O)c(O)c5C=O)[C@]4(C)CC[C@@]3(C)[C@@H]2C1`, in data set [7], the DC50 was below 5 µM.

As to `Clc1ccc(C2CN(c3ccccc3)N=C2c2ccco2)cc1` (centres undefined), half-maximal inhibition in data set [1] (IC50) required 4.1 µM.

`Cc1cc(C(=O)COc2ccc(NC(=O)c3ccco3)cc2)c(C)n1-c1ccccc1` registered an IC50 in [8] of 8.3 µM.

In data set [8], `CC(=O)Nc1ccc(OCC(=O)c2cc(C)n(C(C)C)c2C)cc1` displayed a half-maximal inhibitory concentration (IC50) above 50 µM.

The molecule `Cc1cc(C(=O)COc2ccc(NC(=O)c3ccco3)cc2)c(C)n1Cc1ccccc1` returned a concentration for half-maximal inhibition (IC50) in data set [8] of 4.2 µM.

Take `Cc1c(-c2ccccc2)ccc2nc(-c3ccc(CNCCO)cc3)[nH]c12`: in data set [4], the IC50 came to 1.1 µM.

In data set [9], `Cc1cc(O)n(-c2ccccc2)n1` returned a half-maximal inhibitory concentration (IC50) of 0.092 µM. Besides, the Kd in data set [10] is 0.098 µM.

The molecule `O=C(CSc1ccccc1Cl)N1N=C(c2cccs2)CC1c1ccco1` (centres undefined) returned an IC50 in [2] of 1.3 µM.

For the molecule `Oc1cc(-c2cccc(C(F)(F)F)c2)nn1-c1ccccn1`, in [9], the half-inhibitory concentration (IC50) was determined as 1.1 µM. The Kd in data set [10] amounted to 1.2 µM.

Take `Clc1ccc(C2=NN(Cc3ccccc3)CC2c2ccccc2)cc1` (centres undefined): in data set [2], the 50% inhibitory concentration (IC50) was found to be 0.97 µM.

As for `COc1ccc(/C=C\c2cc(OC)c(OC)c(OC)c2)cc1OCc1ccc(CC=O)cc1`, the IC50 in data set [11] was 0.0488 µM; against Tubulin it was 16.1 µM.

In turn, `N=c1[nH]c2c3c(c4[nH]c(=N)[nH]c4c2[nH]1)[C@@H](CNC(=O)c1cc(Br)c(Br)[nH]1)[C@@H]3CNC(=O)c1cc(Br)c(Br)[nH]1` returned a 50% degradation concentration (DC50) in data set [7] below 5 µM.

In the case of `O=[N+]([O-])c1cccc(/C=N/OCc2coc(-c3cccc(F)c3)n2)c1`, in data set [1], half-maximal inhibition (IC50) was put at 5.16 µM.

Molecule `Cc1c(COc2ccc(CN3CCCCC3C(=O)NCCOCCNC(=O)CCCCCn3cc(CCCC(=O)NCCCC[C@@H]4NC(=O)[C@@H](Cc5ccc(O)cc5)NC(=O)[C@H](CC(=O)O)NC(=O)CNC(=O)[C@H](CCCNC(=N)N)NC4=O)nn3)cc2Br)cccc1-c1ccccc1` (some centres undefined) came in with a DC50 in data set [7] below 0.1 µM.

Consider `Oc1cc(-c2ccc(Cl)cc2Cl)nn1-c1ccccn1`, for which the IC50 in [9] was 0.077 µM. Besides, in data set [10], the Kd amounted to 0.11 µM.

Take `Cc1cccc2nc(-c3cccc(CNCCO)c3)[nH]c12`: the half-inhibitory concentration (IC50) in [4] turned out to be 256 µM.

For the molecule `COc1ccc(-c2nc(CO/N=C/c3ccccc3Cl)co2)cc1`, in [2], the IC50 was determined as 1.5 µM.

Turning to `Cc1c(COc2ccc(CN3CCCCC3C(=O)NCCCn3cc(CCCC(=O)NCCCC[C@@H]4NC(=O)[C@@H](Cc5ccc(O)cc5)NC(=O)[C@H](CC(=O)O)NC(=O)CNC(=O)[C@H](CCCNC(=N)N)NC4=O)nn3)cc2Br)cccc1-c1ccccc1` (some centres undefined), the half-maximal degradation concentration (DC50) in [7] is below 50 µM.

Take `CCOC(=O)C1=C(COCCS)NC(C)=C(C(=O)OC)C1c1ccccc1Cl` (centres undefined): the 50% degradation concentration (DC50) in [7] was below 10 µM.

In data set [7], `Cc1c(COc2ccc(CN3CCCCC3C(=O)NCCOCCOCCOCCNC(=O)CCCCCn3cc(CCCC(=O)NCCCC[C@@H]4NC(=O)[C@@H](Cc5ccc(O)cc5)NC(=O)[C@H](CC(=O)O)NC(=O)CNC(=O)[C@H](CCCNC(=N)N)NC4=O)nn3)cc2Br)cccc1-c1ccccc1` (some centres undefined) registered a 50% degradation concentration (DC50) below 0.1 µM.

Molecule `C/C(=N\OCC(=O)Nc1ccc(C)c(F)c1)c1nc(-c2ccccc2)[nH]c1C` returned an IC50 in data set [2] of 1.4 µM.

Broadly, the half-life is how long it takes for the measured level to halve. Consider `Oc1cc(-c2ccc(C(F)(F)F)cc2)nn1-c1ccccn1`, for which the half-life in data set [12] is below 30 min. Moreover, the IC50 in data set [9] turned out to be 0.143 µM. The dissociation constant Kd in data set [10] was found to be 0.156 µM.

For the molecule `CCCCCN(CCCCC)C(C)C(=O)c1cc(C)c2ccc3cc(C(C)C)ccc3c2c1` (centres undefined), the IC50 in [3] is 0.096 µM. Also, the Activity with MC-38 worked out at 93.6%.

For `CCOC(=O)C(COC(=O)NCCSSCCNC(=O)O/N=C(\Nc1ccc(C)c(O)c1)c1nonc1N)NCc1cc(Cl)c(OCc2cccc(-c3ccccc3)c2Br)cc1OCc1ccnc(C#N)c1` (centres undefined), the IC50 in data set [13] is below 0.1 µM.

Consider `O=[N+]([O-])c1cccc(/C=N/OCc2csc(-c3ccccc3)n2)c1`, for which the midpoint of inhibition in data set [2], the IC50, lay at 4.5 µM.

Consider `COc1ccc2cc3[n+](cc2c1OC)CCc1cc2c(cc1-3)OCO2` [BERBERINE CHLORIDE], for which, in data set [7], the 50% degradation concentration (DC50) is below 2 µM.

With `Cc1ccc([C@@H]2O[C@H](CO)[C@@H](O)[C@H](O)[C@H]2O)cc1Cc1ccc(-c2ccc(F)cc2)s1` [CANAGLIFLOZIN ANHYDROUS], in data set [7], the DC50 was below 20 µM.

`CN(C)C(=N)NC(=N)N` [METFORMIN] yielded a DC50 in data set [7] below 2 µM.

For the molecule `O[C@@H](COc1cccc2ncccc12)CN1CCN([C@@H]2c3ccccc3[C@@H]3[C@H](c4ccccc42)C3(F)F)CC1` [ZOSUQUIDAR], the 50% degradation concentration (DC50) in data set [7] is below 10 µM.
